According to US20260355318A1, “MOLECULAR MACHINES FOR TREATMENT OF CANCER, FUNGAL INFECTIONS, OR BACTERIAL INFECTIONS” (priority 2022, published 2026):

Assays:
[1] = tested on: mature C. albicans biofilms; assay: Biofilm viability (XTT assay); type: cell-based, Candida albicans; conditions: 2×, 4×MIC, vs DMSO, MMs with 87.6 J cm^−2 405-nm light
Protocol: The antibiofilm activity of MMs was investigated using 96-well microtiter plates with flat-bottom wells as a closed static biofilm reactor. This setup is reliable, inexpensive, easy to use and obtain, and requires no additional equipment (Pierce et al., 2010). Two parameters were used to evaluate antibiofilm activity: biofilm biomass and biofilm viability. Biofilm biomass was determined using the crystal violet method (Martins et al, 2010), a simple, inexpensive, and readily accessible method for determining biofilm biomass. However, because crystal violet binds both live and dead cells as well as extracellular polymeric substances, it cannot be used alone to reliably assess antibiofilm activity. To overcome this limitation, the XTT assay was used to evaluate biofilm viability (Nett et al., 2011). […] The resulting formazan can be easily detected by measuring the absorbance at 490 nm, which is proportional to the number of living cells, providing a reliable quantitative measurement of metabolically active cells in biofilms (Taff et al., 2012). […]
Biofilm viability was determined using an XTT cell viability assay kit (Biotium, Hayward, CA, USA) per the manufacturer's instructions. […] Normalized absorbance values were obtained by subtracting the background from the signal.

[2] = tested on: C. albicans mitochondria and plasma membrane; assay: Colocalization analysis by confocal microscopy; type: cell-based, Candida albicans; conditions: no light
Protocol: Colocalization analysis of MMs was performed as previously described (Benhamou et al., 2018; Vida and Emr, 1995) with modifications. A single isolated colony was picked from 24-h SDAE plates, diluted in liquid YPD, and grown at 30 ° C for 24 h. Cells were then re-diluted in fresh YPD medium and grown statically in Ibidi u-dishes (Ibidi GmbH, Munich, Germany) for 24 h at 30 ° C The cells were washed, and then YPD medium containing 8 μM MM 1 and 10 nM MitoTracker™ Green (Thermo Fisher Scientific, MA, USA) was added. After a 30-min dark incubation at 30 ° C, the solution was replaced with fresh medium containing 40 nM FM™ 4-64 (Thermo Fisher Scientific, MA, USA). Cells were immediately imaged in a Nikon Al—RSI confocal system mounted on a Nikon Ti-E widefield fluorescence microscope (Nikon Corporation, NY, USA). Cells were imaged directly on the Ibidi imaging dish using a 60×water immersion objective (numerical aperture of 1.27, 0.17 mm working distance). Colocalization was calculated in the Fiji version of ImageJ using the Colocalization Threshold tool and the Coloc-2 plugin.

[3] = tested on: superoxide dismutase; assay: Superoxide dismutase (SOD) activity; type: cell-based, Candida albicans; conditions: 0.5×MIC, p<0.05
Protocol: Superoxide dismutase (SOD) activity was determined using a Superoxide Dismutase Assay Kit (Caymanchem, MI, USA) per the distributor's instructions. Lipid peroxidation was determined using a TBARS assay kit (TCA method) (Caymanchem, MI, USA) per the distributor's instructions. SOD activity and MDA levels were normalized by protein content determined by the Pierce assay (Pierce™ BCA Protein Assay Kit, Thermo Fisher Scientific, MA, USA).

[4] = tested on: E. coli; assay: Protein carbonyl levels, E. coli; type: cell-based, Escherichia coli; conditions: 1×MIC MM 1
[5] = tested on: E. coli transcripts; assay: GO enrichment analysis of transcripts more abundant in DMSO controls than in MM 1-treated E. coli; type: cell-based, Escherichia coli; conditions: more abundant in DMSO controls than at 0.5×MIC, 405 nm
Protocol: Gene ontology (GO) enrichment analysis of the transcripts displaying significant differences (p<0.05) in abundance between MM- and DMSO-treated cells was performed using Panther (http://pantherdb.org/) using the Fisher's Exact test. Results were corrected for the false discovery rate (FDR).

[6] = cytosolic small ribosomal subunit
[7] = integral component of plasma membrane
[8] = intracellular anatomical structure
[9] = intracellular non-membrane-bounded organelle
[10] = intrinsic component of membrane
[11] = intrinsic component of plasma membrane
[12] = plasma membrane protein complex
[13] = plasma membrane respiratory chain complex I

In the case of `C[C@@H]1Cc2ccc3ccccc3c2/C1=C1\c2ccccc2Sc2cc(NCCN(C)C)ccc21` [MM 1, N^1N^1-dimethyl-N^2-(9-(2-methyl-2,3-dihydro-1H-cyclopenta[a]naphthalen-1-ylidene)-9H-thioxanthen-3-yl) ethane-1,2-diamine], the “reduction of biofilm viability” value [1] is reported as “up to 96%”, the “areal colocalization with FM 4-64” value [2] is reported as 5.2% and the “areal colocalization with MitoTracker Green” value [2] is reported as 52.5%. For the same compound, the superoxide dismutase activity [3] was “increased superoxide dismutase activity”, the protein carbonyl levels [4] was “not significantly changed” and the “Fold Enrichment” value ([5]; NADH dehydrogenase complex) was 3.02. For the same compound, the “transcripts significantly enriched in DMSO controls, #” value (shortened to “transcripts significantly enriched”) ([5]; NADH dehydrogenase complex) was 15, the “Fold Enrichment” value ([5]; Unclassified (−)) was “.71” and the “transcripts significantly enriched” value ([5]; Unclassified (−)) was 300. For the same compound, the “Fold Enrichment” value ([5]; catalytic complex) was 1.51, the “transcripts significantly enriched” value ([5]; catalytic complex) was 129 and the “Fold Enrichment” value ([5]; cell periphery) was 1.15. For the same compound, the “transcripts significantly enriched” value ([5]; cell periphery) was 454, the “Fold Enrichment” value ([5]; cellular anatomical entity) was 1.14 and the “transcripts significantly enriched” value ([5]; cellular anatomical entity) was 969. For the same compound, the “Fold Enrichment” value ([5]; cytoplasm) was 1.18, the “transcripts significantly enriched” value ([5]; cytoplasm) was 487 and the “Fold Enrichment” value ([5]; cytosol) was 1.28. The “transcripts significantly enriched” value ([5]; cytosol) was 394, the “transcripts significantly enriched” value ([5]; cytosolic large ribosomal subunit) was 25 and the “Fold Enrichment” value ([5]; cytosolic ribosome) was 2.64. The “transcripts significantly enriched” value ([5]; cytosolic ribosome) was 44, the “Fold Enrichment” value [5, 6] was 2.60 and the “transcripts significantly enriched” value [5, 6] was 19. The “Fold Enrichment” value ([5]; integral component of membrane) was 1.20, the “transcripts significantly enriched” value ([5]; integral component of membrane) was 386 and the “Fold Enrichment” value [5, 7] was 1.27. For the same compound, the “transcripts significantly enriched” value [5, 7] was 216, the “Fold Enrichment” value [5, 8] was 1.20 and the “transcripts significantly enriched” value [5, 8] was 509. The “Fold Enrichment” value [5, 9] was 2.09, the “transcripts significantly enriched” value [5, 9] was 61 and the “Fold Enrichment” value ([5]; intracellular organelle) was 2.01. For the same compound, the “transcripts significantly enriched” value ([5]; intracellular organelle) was 63, the “Fold Enrichment” value [5, 10] was 1.19 and the “transcripts significantly enriched” value [5, 10] was 392. The “Fold Enrichment” value [5, 11] was 1.29, the “transcripts significantly enriched” value [5, 11] was 225 and the “Fold Enrichment” value ([5]; large ribosomal subunit) was 2.67. The “transcripts significantly enriched” value ([5]; large ribosomal subunit) was 25, the “Fold Enrichment” value ([5]; membrane protein complex) was 1.55 and the “transcripts significantly enriched” value ([5]; membrane protein complex) was 98. For the same compound, the “Fold Enrichment” value ([5]; membrane) was 1.16, the “transcripts significantly enriched” value ([5]; membrane) was 470 and the “Fold Enrichment” value ([5]; non-membrane-bounded organelle) was 1.68. For the same compound, the “transcripts significantly enriched” value ([5]; non-membrane-bounded organelle) was 64, the “Fold Enrichment” value ([5]; organelle) was 1.65 and the “transcripts significantly enriched” value ([5]; organelle) was 66. For the same compound, the “Fold Enrichment” value ([5]; oxidoreductase complex) was 2.47, the “transcripts significantly enriched” value ([5]; oxidoreductase complex) was 47 and the “Fold Enrichment” value [5, 12] was 1.51. The “transcripts significantly enriched” value [5, 12] was 73, the “Fold Enrichment” value ([5]; plasma membrane respirasome) was 2.99 and the “transcripts significantly enriched” value ([5]; plasma membrane respirasome) was 21. For the same compound, the “Fold Enrichment” value [5, 13] was 2.99, the “transcripts significantly enriched” value [5, 13] was 14 and the “Fold Enrichment” value ([5]; plasma membrane) was 1.19. For the same compound, the “transcripts significantly enriched” value ([5]; plasma membrane) was 431, the “Fold Enrichment” value ([5]; protein-containing complex) was 1.47 and the “transcripts significantly enriched” value ([5]; protein-containing complex) was 258. The “Fold Enrichment” value ([5]; respirasome) was 3.04, the “transcripts significantly enriched” value ([5]; respirasome) was 24 and the “Fold Enrichment” value ([5]; respiratory chain complex I) was 2.99. For the same compound, the “transcripts significantly enriched” value ([5]; respiratory chain complex I) was 14, the “Fold Enrichment” value ([5]; respiratory chain complex) was 3.01 and the “transcripts significantly enriched” value ([5]; respiratory chain complex) was 22. For the same compound, the “Fold Enrichment” value ([5]; ribonucleoprotein complex) was 2.61, the “transcripts significantly enriched” value ([5]; ribonucleoprotein complex) was 45 and the “Fold Enrichment” value ([5]; ribosomal subunit) was 2.64. The “transcripts significantly enriched” value ([5]; ribosomal subunit) was 44, the “Fold Enrichment” value ([5]; ribosome) was 2.51 and the “transcripts significantly enriched” value ([5]; ribosome) was 47. For the same compound, the “Fold Enrichment” value ([5]; small ribosomal subunit) was 2.60 and the “transcripts significantly enriched” value ([5]; small ribosomal subunit) was 19.
